Experimental data: US20200016133A1, “PREVENTION AND TREATMENT OF THROMBOSIS IN MEDICALLY ILL PATIENTS” (Portola Pharmaceuticals, Inc., priority 2011, published 2020)

Assay: effect of co-administered P-glycoprotein (Pgp) inhibitor on betrixaban exposure
Format: in vivo
Details: with concomitant Pgp inhibitor
Method: In some embodiments, a P-glycoprotein (Pgp) inhibitor is concomitantly administered to the patient. […] In one aspect, when used together with a Pgp inhibitor, betrixaban is administered at about 40 mg, or alternatively about 35 mg, or 30, or 25, or 20, or 15, or 10 mg daily. The same amount is applicable to patients who experience kidney insufficiency.

exposure of betrixaban: increases the exposure
SMILES: COc1ccc(NC(=O)c2ccc(C(=N)N(C)C)cc2)c(C(=O)Nc2ccc(Cl)cn2)c1 [betrixaban, [2-({4-[(dimethylamino)iminomethyl]phenyl}carbonylamino)-5-methoxyphenyl]-N-(5-chloro(2-pyridyl))carboxamide]
